Measurements published in patent US20080221114A1, “2-(Cyclic Aminocarbonyl) Indoline Derivative and Medicinal Composition Containing the Same” (priority 2005, published 2008).

Legend:
mice (male ddY) = assay: Social interaction test (antianxiety effect); assay type: in vivo, mouse; settings: oral, 1 hour before test; statistically significant increase in social interaction time vs vehicle (Dunnett's test, 5%)
Text: The test is a behavioral pharmacological test wherein social interaction time which would arise between 2 animals (mice, rats or other) in a test apparatus is considered to be as an anxious indicator [see; File, S. E., J. Neurosci. Methods, 2, 219-238 (1980)]. It is known that a bright and unfamiliar test apparatus which is an aversive condition for mice or rats may suppress a social interaction of the animals and such suppressed social interaction may be restored by an antianxiety drug such as benzodiazepines.
A glass beaker which was inverted onto a frosted glass plate was brightly illuminated with a light source (ca. 1200 lux in the apparatus), and it was used as a test apparatus. Two mice (male ddY, 22-32 g) that were housed in separate home cages were orally treated with a test compound and returned to their home cages. One hour after the oral administration, the two mice were then placed together in the test apparatus, and the amount of time spent in social interaction by the two mice during a 15-minute period was recorded. The social interaction was defined as grooming and sniffing of the partner, genital investigation of the partner, climbing over or crawling under the partner. Four to five pairs (8 to 10 mice) were used per a group.
An antianxiety effect of the test compounds was presented as a minimum effective dose which indicated statistically significant increase in social interaction time as compared with a vehicle control group (Dunnett's test, Significance level: 5%).

[1] = target: T1, mitochondrial benzodiazepine receptor (MBR) (Rattus norvegicus, UniProt P16257); assay: Binding assay of mitochondrial benzodiazepine receptor (MBR), [3H]4'-chlorodiazepam (Ro5-4864), rat kidney membrane-preparation; settings: rat kidney membranes, [3H]4'-chlorodiazepam 0.5 nM, 0° C. for 150 minutes
T1 construct: from tissue; host or cells: kidney of male Wistar rats (crude membrane preparation)
Procedure: The binding assay of central-type benzodiazepine receptor (CBR) and the preparation of receptor membrane-preparation were carried out according to the partially modified method of Braestrup, C. et al. [see; Br. J. Psychiatry, 133, 249-260 (1978)] with a minor modification; the binding assay of mitochondrial benzodiazepine receptor (MBR) and the preparation of receptor membrane-preparation were carried out according to the method of Schoemaker, H [see; J. Pharmacol. Exp. Ther., 225, 61-69 (1983)] with a minor modification.
CBR and MBR membrane-preparations were prepared from forebrain (CBR) and kidney (MBR) of male Wistar strain rats according to the following procedure, respectively.
To the forebrain of rat, 20 volumes of ice-cold 0.32 M sucrose solution to wet-weight of the tissue (1:20, wet-weight/vol) was added and homogenized, and then the homogenate was centrifuged at 900×g for 10 minutes. The supernatant was centrifuged at 11,500×g for 20 minutes, a buffer I for the binding assay (50 mM Tris-hydrochloric acid buffer, pH 7.5) was added to the resultant precipitate, and the mixture was homogenized, and then it was centrifuged at 30,000×g for 10 minutes. The resulting precipitate was washed 3 times according to the same operation, suspended in the buffer I (1 g of wet-weight of tissue/10 ml) and used as a CBR membrane-preparation for the binding assay. The CBR membrane-preparation was stored at −80° C. until use, and on the day of the assay, it was thawed and suspended in the buffer for use. On the other hand, kidney of rat was homogenized in 20 volumes of ice-cold buffer II for the binding assay to wet-weight of the tissue (1:20, wet-weight/vol) (50 mM sodium phosphate-potassium phosphate buffer solution containing 100 mM sodium chloride, pH 7.4), and then filtrated through 4 layers of gauze, and the filtrate was centrifuged at 40,000×g for 20 minutes. The resulting precipitate was suspended in the buffer II (1 g of wet-weight of tissue/50 ml) and used as a MBR membrane-preparation for the binding assay.
As a labeled ligand and a non-labeled ligand, [^3H]flunitrazepam (final concentration: 1 nM) and diazepam (final concentration: 20 μM) were used respectively, for the CBR binding assay, and [^3H]4′-chlorodiazepam (Ro5-4864, chemical name: 7-chloro-1,3-dihydro-1-methyl-5-(4-chloro-phenyl)-2H-1,4-[…]) (final concentration: 0.5 nM) and diazepam (final concentration: 50 μM) were used respectively, for the MBR binding assay. The binding assay of CBR was carried out by incubating at 0° C. for 30 minutes, while that of MBR was at 0° C. for 150 minutes.
The receptor binding assay was carried out in the following procedure. The test compound which the concentration was known, a tritium labeled ligand, a receptor membrane-preparation and the buffer I or II for the binding assay were added to a 96-well microplate in the total volume was 0.2 ml, and when the receptor membrane-preparation was added, the reaction started. After the incubation, the labeled ligand binding to the receptor was filtrated through a filter plate (UNI FILTER-96GF/B, PerkinElmer, the U.S.) using a cell harvester (PerkinElmer, the U.S.) to stop the reaction. The filter was immediately washed 6 times with 0.3 ml of the ice-cold buffer [50 mM Tris-hydrochloric acid buffer (pH 7.7)]. After 30 μl of liquid scintillation cocktail (MICROSCINTI 20, PerkinElmer, the U.S.) was added to each well on the dried filter plate, the radioactivity was measured with a TopCount. The specific binding amount was obtained by subtracting the non-specific binding amount which was simultaneously measured in the presence of non-labeled ligand from the total binding amount. The concentration that the test compound could decrease the specific binding amount of the labeled ligand to 50% of the amount (IC50 value) was analyzed using nonlinear least-squares method.

Compound	Minimum effective dose (mice (male ddY))	IC50 [1]	melting point
CCn1nc(N2c3ccccc3C[C@H]2C(=O)N2CCC[C@H](C)C2)ccc1=O [Example 129, (S)-1-(1-ethyl-6-oxo-1,6-dihydropyridazin-3-yl)-2-[[(S)-3-methylpiperidin-1-yl]carbonyl]indoline]	1 mg/kg	5.56 nM	–
C[C@H]1CCCN(C(=O)[C@@H]2Cc3ccccc3N2c2cccnn2)C1 [Example 63, (S)-2-[(S)-3-methylpiperidin-1-yl]carbonyl-1-(3-pyridazinyl)indoline]	0.01 mg/kg	2.51 nM	143 to 145 °C
C[C@H]1CCCN(C(=O)[C@@H]2Cc3ccccc3N2c2ncccn2)C1 [Example 23, (S)-2-[(S)-3-methylpiperidin-1-yl]carbonyl-1-(2-pyrimidinyl)indoline]	0.01 mg/kg	0.949 nM	212 to 214 °C
C[C@@H]1C[C@H](C)CN(C(=O)[C@@H]2Cc3ccccc3N2c2ncccn2)C1 [Example 24, (S)-2-(cis-3,5-dimethylpiperidin-1-yl)carbonyl-1-(2-pyrimidinyl)indoline]	0.001 mg/kg	0.851 nM	163 to 164 °C
2-[((cis-3,5-dimethylpiperidin-1-yl)-carbonyl]-1-(2-pyrimidinyl)indoline [Example 1]	0.001 mg/kg	1.98 nM	–
C[C@@H]1C[C@H](C)CN(C(=O)[C@@H]2Cc3ccccc3N2c2nc3ccccc3s2)C1 [Example 15]	–	1.46 nM	170 to 173 °C
C[C@H]1CCCN(C(=O)[C@@H]2Cc3cc(Cl)ccc3N2c2cccnn2)C1 [Example 91]	–	2.31 nM	175 to 177 °C
COc1ccc2c(c1)CC(C(=O)N1CCC[C@H](C)C1)N2c1ccc(Cl)nn1 (some centres unmarked) [Example 69]	–	4.51 nM	136 to 139 °C
C[C@H]1CCCN(C(=O)[C@@H]2Cc3ccccc3N2c2cnn(C)c(=O)c2)C1 [Example 83]	–	9.33 nM	150 to 152 °C
C=Cc1ccc2c(c1)C[C@@H](C(=O)N1CCC[C@H](C)C1)N2c1cccnn1 [Example 98]	–	44.3 nM	103 to 106 °C
COc1ccc(N2c3ccccc3C[C@H]2C(=O)N2C[C@H](C)C[C@H](C)C2)nn1 [Example 39]	–	1.71 nM	173 to 175 °C
Cn1nc(N2c3ccccc3C[C@H]2C(=O)N2CCCCC2)ccc1=O [Example 107, (S)-1-(1-methyl-6-oxo-1,6-dihydropyridazin-3-yl)-2-(1-piperidinylcarbonyl)indoline]	–	28.5 nM	225 to 227 °C
O=C(C1Cc2ccccc2N1c1ncccn1)N1CCCC(c2ccccc2)C1 (racemic) [Example 51]	–	21.2 nM	145 to 151 °C
COc1ccc2c(c1)N(c1ccc(=O)n(C)n1)C(C(=O)N1CCCC(C)C1)C2 (racemic) [Example 135]	–	13.5 nM	182 to 184 °C
C[C@H]1CCCN(C(=O)[C@@H]2Cc3ccccc3N2c2ccc(Cl)nn2)C1 [Example 35]	–	1.19 nM	183 to 186 °C
C[C@H]1CCCN(C(=O)[C@@H]2Cc3ccccc3N2c2ccccn2)C1 [Example 72]	–	0.659 nM	186 to 189 °C

Compound	Minimum effective dose (mice (male ddY))	IC50 [1]	melting point
COc1cccc2c1CC(C(=O)N1CCC[C@H](C)C1)N2c1ccc(Cl)nn1 (some centres unmarked) [Example 68]	–	1.67 nM	223 to 226 °C
COc1ccc2c(c1)N(c1ccc(Cl)nn1)C(C(=O)N1CCC[C@H](C)C1)C2 (some centres unmarked) [Example 70]	–	2.45 nM	184 to 186 °C
C[C@H]1CCCN(C(=O)[C@@H]2Cc3ccccc3N2c2nc3ccccc3o2)C1 [Example 17, (S)-1-(1,3-benzoxazol-2-yl)-2-[[(S)-3-methylpiperidin-1-yl]carbonyl]indoline]	–	0.638 nM	191 to 193 °C
C[C@H]1CCCN(C(=O)[C@@H]2Cc3ccccc3N2c2ccc(=O)n(CC3CCCCC3)n2)C1 [Example 77]	–	3.15 nM	215 to 217 °C
C[C@@H]1C[C@H](C)CN(C(=O)[C@@H]2Cc3ccccc3N2c2nc3ccccc3o2)C1 [Example 18]	–	1.47 nM	165 to 167 °C
C[C@@H]1C[C@H](C)CN(C(=O)[C@@H]2Cc3ccccc3N2c2cccnn2)C1 [Example 57, (S)-2-[(cis-3,5-dimethylpiperidin-1-yl)-carbonyl]-1-(3-pyridazinyl)indoline]	0.1 mg/kg	2.03 nM	–
C[C@H]1CCCN(C(=O)C2Cc3cc(F)ccc3N2c2ccc(Cl)nn2)C1 (some centres unmarked) [Example 67]	–	1.56 nM	164 to 168 °C
C[C@@H]1CCCN(C(=O)[C@@H]2Cc3ccccc3N2c2ccc(=O)n(C)n2)C1 [Example 122]	–	26.8 nM	191 to 193 °C
C[C@@H]1C[C@H](C)CN(C(=O)[C@@H]2Cc3ccccc3N2c2ccc(=O)n(C)n2)C1 [Example 41, (S)-1-(1-methyl-6-oxo-1,6-dihydropyridazin-3-yl)-2-[(cis-3,5-dimethylpiperidin-1-yl)carbonyl]indoline]	0.01 mg/kg	2.41 nM	200 to 204 °C
COc1ccc2c(c1)CC(C(=O)N1CCCC(C)C1)N2c1ccc(=O)n(C)n1 (racemic) [Example 134]	–	33.8 nM	248 to 250 °C
C[C@@H]1CCCN(C(=O)[C@@H]2Cc3ccccc3N2c2ncccn2)C1 [Example 22]	–	19.3 nM	151 to 153 °C
O=C(C1Cc2ccccc2N1c1ncccn1)N1CCCCC1 (centres unmarked) [Example 7]	–	123 nM	149 to 151 °C
C[C@@H]1CCCN(C(=O)[C@@H]2Cc3ccccc3N2c2cccnn2)C1 [Example 62]	–	12.2 nM	169 to 172 °C
C[C@H]1CCCN(C(=O)[C@@H]2Cc3ccccc3N2c2ccc(=O)n(Cc3ccccc3)n2)C1 [Example 123, (S)-1-(1-benzyl-6-oxo-1,6-dihydropyridazin-3-yl)-2-[[(S)-3-methylpiperidin-1-yl]carbonyl]indoline]	–	1.45 nM	220 to 222 °C
C[C@H]1CCCN(C(=O)[C@@H]2Cc3ccccc3N2c2nccc3ccccc23)C1 [Example 12]	–	1.37 nM	134 to 136 °C
C[C@@H]1C[C@H](C)CN(C(=O)[C@@H]2Cc3ccccc3N2c2nccc3ccccc23)C1 [Example 13]	–	2.08 nM	173 to 175 °C
